Results taken from patent US12077503B2, “Substituted cyclic amides and their use as herbicides” (FMC CORPORATION, priority 2015, dated 2024).

What was measured:
Test in all cases: Test C preemergence
Assay type in all cases: in vivo
soybean (Glycine max) = settings: scale 0 to 100, 0 no effect, 100 complete control
How it was run: (§1)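 Assessment: visual, 13–15 d after treatment, 0 (no effect) to 100 (complete control) relative to controls. Treatment: preemergence to seeds in loam-sand soil, or postemergence to 1- to 4-leaf plants in peat-based medium. Formulation: non-phytotoxic solvent mixture with surfactant.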

[1] = system: waterhemp (common waterhemp, Amaranthus rudis); settings: for Plant response rating, Waterhemp: scale 0 to 100, 0 no effect, 100 complete control
How it was run: as §1

[2] = system: velvetleaf (Abutilon theophrasti); settings: for Plant response rating, Velvetleaf: scale 0 to 100, 0 no effect, 100 complete control
How it was run: as §1

[3] = system: morningglory (Ipomoea coccinea); settings: for Plant response rating, Morningglory: scale 0 to 100, 0 no effect, 100 complete control
How it was run: as §1

[4] = system: foxtail, giant (giant foxtail, Setaria faberii); settings: for Plant response rating, Foxtail, Giant: scale 0 to 100, 0 no effect, 100 complete control
How it was run: as §1

[5] = system: blackgrass (Alopecurus myosuroides); settings: for Plant response rating, Blackgrass: scale 0 to 100, 0 no effect, 100 complete control
How it was run: as §1

[6] = system: ryegrass, Italian (Italian ryegrass, Lolium multiflorum); settings: for Plant response rating, Ryegrass, Italian: scale 0 to 100, 0 no effect, 100 complete control
How it was run: as §1

[7] = system: barnyardgrass (Echinochloa crus-galli); settings: for Plant response rating, Barnyardgrass: scale 0 to 100, 0 no effect, 100 complete control
How it was run: as §1

[8] = system: nutsedge, yellow (yellow nutsedge, Cyperus esculentus); settings: for Plant response rating, Nutsedge, Yellow: scale 0 to 100, 0 no effect, 100 complete control
How it was run: as §1

[9] = system: lambsquarters (Chenopodium album); settings: for Plant response rating, Lambsquarters: scale 0 to 100, 0 no effect, 100 complete control
How it was run: as §1

[10] = system: oilseed rape (Brassica napus); settings: for Plant response rating, Oilseed Rape: scale 0 to 100, 0 no effect, 100 complete control
How it was run: as §1

corn (Zea mays) = settings: for Plant response rating, Corn: scale 0 to 100, 0 no effect, 100 complete control
How it was run: as §1

[11] = system: Galium (catchweed bedstraw, Galium aparine); settings: for Plant response rating, Galium: scale 0 to 100, 0 no effect, 100 complete control
How it was run: as §1

[12] = system: crabgrass, large (large crabgrass, Digitaria sanguinalis); settings: for Plant response rating, Crabgrass, Large: scale 0 to 100, 0 no effect, 100 complete control
How it was run: as §1

[13] = system: ragweed (common ragweed, Ambrosia elatior); settings: for Plant response rating, Ragweed: scale 0 to 100, 0 no effect, 100 complete control
How it was run: as §1

[14] = system: wheat (winter wheat, Triticum aestivum); settings: for Plant response rating, Wheat: scale 0 to 100, 0 no effect, 100 complete control
How it was run: as §1

[15] = system: johnsongrass (Sorghum halepense); settings: for Plant response rating, Johnsongrass: scale 0 to 100, 0 no effect, 100 complete control
How it was run: as §1

[16] = 31 g ai/ha, 0 is no effect, 100 is complete control

## Cc1cccc(C2CN(C)C(=O)C2C(=O)Nc2cccc(F)c2F)c1 (stereo not shown) [Compound 667]
Soybean (Glycine max); 62 g ai/ha
  Plant response rating, Soybean: 10
Soybean (Glycine max); 125 g ai/ha
  Plant response rating, Soybean: 0
Soybean (Glycine max); 250 g ai/ha
  Plant response rating, Soybean: 0
[1]; [16]
  Plant response rating (scale of 0 to 100), Waterhemp: 0
[1]; 62 g ai/ha
  Plant response rating, Waterhemp: 10
[1]; 125 g ai/ha
  Plant response rating, Waterhemp: 60
[1]; 250 g ai/ha
  Plant response rating, Waterhemp: 75
[2]; [16]
  Plant response rating (scale of 0 to 100), Velvetleaf: 5
[2]; 62 g ai/ha
  Plant response rating, Velvetleaf: 30
[2]; 125 g ai/ha
  Plant response rating, Velvetleaf: 50
[2]; 250 g ai/ha
  Plant response rating, Velvetleaf: 40
[3]; [16]
  Plant response rating (scale of 0 to 100), Morningglory: 0
[3]; 62 g ai/ha
  Plant response rating, Morningglory: 0
[3]; 125 g ai/ha
  Plant response rating, Morningglory: 0
[3]; 250 g ai/ha
  Plant response rating, Morningglory: 10
[4]; [16]
  Plant response rating (scale of 0 to 100), Foxtail, Giant: 95
[4]; 62 g ai/ha
  Plant response rating, Foxtail, Giant: 98
[4]; 125 g ai/ha
  Plant response rating, Foxtail, Giant: 98
[4]; 250 g ai/ha
  Plant response rating, Foxtail, Giant: 100
[5]; [16]
  Plant response rating (scale of 0 to 100), Blackgrass: 50
[5]; 62 g ai/ha
  Plant response rating, Blackgrass: 80
[5]; 125 g ai/ha
  Plant response rating, Blackgrass: 85
[5]; 250 g ai/ha
  Plant response rating, Blackgrass: 95
[6]; [16]
  Plant response rating (scale of 0 to 100), Ryegrass, Italian: 60
[6]; 62 g ai/ha
  Plant response rating, Ryegrass, Italian: 70
[6]; 125 g ai/ha
  Plant response rating, Ryegrass, Italian: 95
[6]; 250 g ai/ha
  Plant response rating, Ryegrass, Italian: 98
[7]; [16]
  Plant response rating (scale of 0 to 100), Barnyardgrass: 95
[7]; 62 g ai/ha
  Plant response rating, Barnyardgrass: 95
[7]; 125 g ai/ha
  Plant response rating, Barnyardgrass: 98
[7]; 250 g ai/ha
  Plant response rating, Barnyardgrass: 100
[8]; [16]
  Plant response rating (scale of 0 to 100), Nutsedge, Yellow: 0
[8]; 62 g ai/ha
  Plant response rating, Nutsedge, Yellow: 0
[8]; 125 g ai/ha
  Plant response rating, Nutsedge, Yellow: 0
[8]; 250 g ai/ha
  Plant response rating, Nutsedge, Yellow: 25
[9]; [16]
  Plant response rating (scale of 0 to 100), Lambsquarters: 50
[9]; 62 g ai/ha
  Plant response rating, Lambsquarters: 70
[9]; 125 g ai/ha
  Plant response rating, Lambsquarters: 90
[9]; 250 g ai/ha
  Plant response rating, Lambsquarters: 100
[10]; [16]
  Plant response rating (scale of 0 to 100), Oilseed Rape: 35
[10]; 62 g ai/ha
  Plant response rating, Oilseed Rape: 85
[10]; 125 g ai/ha
  Plant response rating, Oilseed Rape: 85
[10]; 250 g ai/ha
  Plant response rating, Oilseed Rape: 90
Corn (Zea mays); [16]
  Plant response rating (scale of 0 to 100), Corn: 55
Corn (Zea mays); 62 g ai/ha
  Plant response rating, Corn: 70
Corn (Zea mays); 125 g ai/ha
  Plant response rating, Corn: 80
Corn (Zea mays); 250 g ai/ha
  Plant response rating, Corn: 85
[11]; [16]
  Plant response rating (scale of 0 to 100), Galium: 10
[11]; 62 g ai/ha
  Plant response rating, Galium: 100
[11]; 125 g ai/ha
  Plant response rating, Galium: 98
[11]; 250 g ai/ha
  Plant response rating, Galium: 90
[12]; [16]
  Plant response rating (scale of 0 to 100), Crabgrass, Large: 95
[12]; 62 g ai/ha
  Plant response rating, Crabgrass, Large: 95
[12]; 125 g ai/ha
  Plant response rating, Crabgrass, Large: 98
[12]; 250 g ai/ha
  Plant response rating, Crabgrass, Large: 98
[13]; [16]
  Plant response rating (scale of 0 to 100), Ragweed: 25
[13]; 62 g ai/ha
  Plant response rating, Ragweed: 100
[13]; 125 g ai/ha
  Plant response rating, Ragweed: 70
[13]; 250 g ai/ha
  Plant response rating, Ragweed: 80
[14]; [16]
  Plant response rating (scale of 0 to 100), Wheat: 0
[14]; 62 g ai/ha
  Plant response rating, Wheat: 10
[14]; 125 g ai/ha
  Plant response rating, Wheat: 55
[14]; 250 g ai/ha
  Plant response rating, Wheat: 50
[15]; [16]
  Plant response rating (scale of 0 to 100), Johnsongrass: 70
[15]; 62 g ai/ha
  Plant response rating, Johnsongrass: 80
[15]; 125 g ai/ha
  Plant response rating, Johnsongrass: 85
[15]; 250 g ai/ha
  Plant response rating, Johnsongrass: 90
